Key:
ELIC S271A + F303A = target: T1, ELIC S271A + F303A (Dickeya chrysanthemi, UniProt P0C7B7, F303A/S271A); experiment: TEVC cysteamine-induced current, ELIC S271A + F303A; format: cell-based; details: Xenopus laevis oocytes; ±SD; n=8
T1 construct: expressed in transfected cells; host or cells: Xenopus laevis oocytes injected with cRNA (pTLN plasmid)
Source text: (§1) To examine how different physical interactions at the M4-M1/M3 interface in both GLIC and ELIC (Fig. 1) influence function, we mutated each residue to Ala, and characterized how each mutation influenced agonist-induced channel gating using two-electrode voltage clamp electrophysiology. Both GLIC and ELIC are cation-selective ion channels that transiently gate open in response to agonist binding, although GLIC responds to protons while ELIC responds to primary amines, such as cysteamine, [34].
(§2) Stage V–VI oocytes were collected as previously described, injected with cRNA, and allowed to incubate one to four days at 16 °C in ND96 + buffer (5 mM HEPES, 96 mM NaCl, 2 mM KCl, 1 mM MgCl2, 1 mM CaCl2, and 2 mM Pyruvate). Whole cell currents were recorded using a two-electrode voltage clamp apparatus (OC-725C oocyte clamp; Holliston, MA). For GLIC, whole cell currents were recorded from injected oocytes (3–20 ng cRNA) immersed in MES buffer (140 mM NaCl, 2.8 mM KCl, 2 mM MgCl2, and 10 mM MES). Currents through the plasma membrane in response to pH jumps (pH 7.3 down to the indicated pH values) were measured with the transmembrane voltage clamped at voltages between −20 mV and −40 mV depending on the level of expression, typically −20 mV. […]

ELIC F303A = test system: ELIC F303A; design: method as in Henault et al.[9], [18], [29]; details: Xenopus laevis oocytes; ±SD; n=10; ref Henault et al.[9], [18], [29]; cited from earlier work
ELIC L295A = test system: ELIC L295A; design: method as in Henault et al.[9], [18], [29]; details: Xenopus laevis oocytes; ±SD; n=8; ref Henault et al.[9], [18], [29]; cited from earlier work
ELIC I319A = test system: ELIC I319A; design: method as in Henault et al.[9], [18], [29]; details: Xenopus laevis oocytes; ±SD; n=11; ref Henault et al.[9], [18], [29]; cited from earlier work
ELIC S271A + F307A = target: T2, ELIC S271A + F307A (Dickeya chrysanthemi, UniProt P0C7B7, F307A/S271A); experiment: TEVC cysteamine-induced current, ELIC S271A + F307A; format: cell-based; details: Xenopus laevis oocytes; ±SD; n=8
T2 construct: expressed in transfected cells; host or cells: Xenopus laevis oocytes injected with cRNA (pTLN plasmid)
T2 sequence (P0C7B7 whole entry S271A/F307A): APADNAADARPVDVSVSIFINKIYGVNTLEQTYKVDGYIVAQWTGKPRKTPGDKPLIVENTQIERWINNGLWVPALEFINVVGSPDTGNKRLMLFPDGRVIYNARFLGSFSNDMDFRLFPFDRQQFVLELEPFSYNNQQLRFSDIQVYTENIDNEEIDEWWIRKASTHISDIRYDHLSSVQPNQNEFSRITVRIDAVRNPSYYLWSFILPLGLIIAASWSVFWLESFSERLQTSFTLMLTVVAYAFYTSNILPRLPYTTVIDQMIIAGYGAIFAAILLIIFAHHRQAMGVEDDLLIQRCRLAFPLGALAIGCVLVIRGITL
Source text: as §1, §2

ELIC S271A = target: T3, ELIC S271A (Dickeya chrysanthemi, UniProt P0C7B7, S271A); experiment: TEVC cysteamine-induced current, ELIC S271A; format: cell-based; details: Xenopus laevis oocytes; ±SD; n=8
T3 construct: expressed in transfected cells; host or cells: Xenopus laevis oocytes injected with cRNA
T3 sequence (P0C7B7 whole entry S271A): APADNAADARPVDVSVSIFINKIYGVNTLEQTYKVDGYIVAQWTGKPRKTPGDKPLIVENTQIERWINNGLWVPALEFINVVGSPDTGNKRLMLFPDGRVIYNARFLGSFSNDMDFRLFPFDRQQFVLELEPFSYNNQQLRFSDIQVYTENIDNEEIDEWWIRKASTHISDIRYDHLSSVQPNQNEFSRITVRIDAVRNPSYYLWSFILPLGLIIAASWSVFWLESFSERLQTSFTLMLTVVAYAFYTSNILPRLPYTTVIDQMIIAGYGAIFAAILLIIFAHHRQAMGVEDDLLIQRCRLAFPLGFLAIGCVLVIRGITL
Source text: as §1, §2

ELIC L209A = target: T4, ELIC L209A (Dickeya chrysanthemi, UniProt P0C7B7, L209A); experiment: TEVC cysteamine-induced current, ELIC L209A; format: cell-based; details: Xenopus laevis oocytes; ±SD; n=8
T4 construct: expressed in transfected cells; host or cells: Xenopus laevis oocytes injected with cRNA
T4 sequence (P0C7B7 whole entry L209A): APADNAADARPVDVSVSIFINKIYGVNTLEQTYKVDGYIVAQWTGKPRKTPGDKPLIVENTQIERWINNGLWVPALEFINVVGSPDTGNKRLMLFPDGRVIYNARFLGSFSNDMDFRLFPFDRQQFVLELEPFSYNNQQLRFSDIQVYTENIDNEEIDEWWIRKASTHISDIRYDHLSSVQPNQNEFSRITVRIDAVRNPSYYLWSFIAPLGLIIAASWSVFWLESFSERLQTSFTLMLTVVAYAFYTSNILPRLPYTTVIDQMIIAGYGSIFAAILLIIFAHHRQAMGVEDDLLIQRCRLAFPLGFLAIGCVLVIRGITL
Source text: as §1, §2

ELIC V315A = test system: ELIC V315A; design: method as in Henault et al.[9], [18], [29]; details: Xenopus laevis oocytes; ±SD; n=9; ref Henault et al.[9], [18], [29]; cited from earlier work
ELIC R300A = test system: ELIC R300A; design: method as in Henault et al.[9], [18], [29]; details: Xenopus laevis oocytes; ±SD; n=11; ref Henault et al.[9], [18], [29]; cited from earlier work
ELIC W223A = target: T5, ELIC W223A (Dickeya chrysanthemi, UniProt P0C7B7, W223A); experiment: TEVC cysteamine-induced current, ELIC W223A; format: cell-based; details: Xenopus laevis oocytes; ±SD; n=8
T5 construct: expressed in transfected cells; host or cells: Xenopus laevis oocytes injected with cRNA
T5 sequence (P0C7B7 whole entry W223A): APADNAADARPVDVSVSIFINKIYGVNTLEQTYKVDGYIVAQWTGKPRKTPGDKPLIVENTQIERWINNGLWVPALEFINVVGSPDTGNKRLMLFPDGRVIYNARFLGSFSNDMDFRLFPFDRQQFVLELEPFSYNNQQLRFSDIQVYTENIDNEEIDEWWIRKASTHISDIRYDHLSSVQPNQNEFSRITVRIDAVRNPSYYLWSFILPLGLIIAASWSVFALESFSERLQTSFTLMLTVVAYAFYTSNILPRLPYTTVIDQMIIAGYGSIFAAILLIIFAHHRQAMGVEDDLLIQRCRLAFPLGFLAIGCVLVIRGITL
Source text: as §1, §2

ELIC L314A = test system: ELIC L314A; design: method as in Henault et al.[9], [18], [29]; details: Xenopus laevis oocytes; ±SD; n=8; ref Henault et al.[9], [18], [29]; cited from earlier work
ELIC L213A = target: T6, ELIC L213A (Dickeya chrysanthemi, UniProt P0C7B7, L213A); experiment: TEVC cysteamine-induced current, ELIC L213A; format: cell-based; details: Xenopus laevis oocytes; ±SD; n=8
T6 construct: expressed in transfected cells; host or cells: Xenopus laevis oocytes injected with cRNA
T6 sequence (P0C7B7 whole entry L213A): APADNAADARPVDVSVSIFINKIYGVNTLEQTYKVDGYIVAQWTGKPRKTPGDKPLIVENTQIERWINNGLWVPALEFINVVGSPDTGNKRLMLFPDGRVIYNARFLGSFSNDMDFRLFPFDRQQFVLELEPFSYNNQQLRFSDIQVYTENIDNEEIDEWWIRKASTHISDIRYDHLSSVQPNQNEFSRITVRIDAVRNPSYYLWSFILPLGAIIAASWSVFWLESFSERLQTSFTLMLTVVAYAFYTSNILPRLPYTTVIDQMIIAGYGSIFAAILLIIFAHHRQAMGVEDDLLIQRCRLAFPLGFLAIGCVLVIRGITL
Source text: as §1, §2

ELIC W223A + R300A = target: T7, ELIC W223A + R300A (Dickeya chrysanthemi, UniProt P0C7B7, R300A/W223A); experiment: TEVC cysteamine-induced current, ELIC W223A + R300A; format: cell-based; details: Xenopus laevis oocytes; ±SD; n=8
T7 construct: expressed in transfected cells; host or cells: Xenopus laevis oocytes injected with cRNA (pTLN plasmid)
T7 sequence (P0C7B7 whole entry W223A/R300A): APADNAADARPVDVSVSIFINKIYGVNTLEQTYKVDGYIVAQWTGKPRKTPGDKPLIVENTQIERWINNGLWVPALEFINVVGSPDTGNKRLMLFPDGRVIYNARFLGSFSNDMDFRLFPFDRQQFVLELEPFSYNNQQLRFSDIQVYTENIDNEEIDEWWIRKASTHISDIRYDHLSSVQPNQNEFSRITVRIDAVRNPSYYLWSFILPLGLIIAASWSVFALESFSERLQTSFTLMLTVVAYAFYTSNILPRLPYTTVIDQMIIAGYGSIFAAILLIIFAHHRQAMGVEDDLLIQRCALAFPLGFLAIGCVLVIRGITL
Source text: as §1, §2

ELIC W219A + F303A = target: T8, ELIC W219A + F303A (Dickeya chrysanthemi, UniProt P0C7B7, F303A/W219A); experiment: TEVC cysteamine-induced current, ELIC W219A + F303A; format: cell-based; details: Xenopus laevis oocytes; ±SD; n=8
T8 construct: expressed in transfected cells; host or cells: Xenopus laevis oocytes injected with cRNA (pTLN plasmid)
T8 sequence (P0C7B7 whole entry W219A/F303A): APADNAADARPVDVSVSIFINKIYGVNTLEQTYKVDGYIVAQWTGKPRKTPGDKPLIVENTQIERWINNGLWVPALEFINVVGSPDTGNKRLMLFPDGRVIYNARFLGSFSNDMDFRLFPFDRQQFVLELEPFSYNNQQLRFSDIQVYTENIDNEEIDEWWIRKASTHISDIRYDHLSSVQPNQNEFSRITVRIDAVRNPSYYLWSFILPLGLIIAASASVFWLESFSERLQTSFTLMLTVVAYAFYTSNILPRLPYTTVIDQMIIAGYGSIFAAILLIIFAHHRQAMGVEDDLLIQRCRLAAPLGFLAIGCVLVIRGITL
Source text: as §1, §2

ELIC F281A = target: T9, ELIC F281A (Dickeya chrysanthemi, UniProt P0C7B7, F281A); experiment: TEVC cysteamine-induced current, ELIC F281A; format: cell-based; details: Xenopus laevis oocytes; ±SD; n=8
T9 construct: expressed in transfected cells; host or cells: Xenopus laevis oocytes injected with cRNA
T9 sequence (P0C7B7 whole entry F281A): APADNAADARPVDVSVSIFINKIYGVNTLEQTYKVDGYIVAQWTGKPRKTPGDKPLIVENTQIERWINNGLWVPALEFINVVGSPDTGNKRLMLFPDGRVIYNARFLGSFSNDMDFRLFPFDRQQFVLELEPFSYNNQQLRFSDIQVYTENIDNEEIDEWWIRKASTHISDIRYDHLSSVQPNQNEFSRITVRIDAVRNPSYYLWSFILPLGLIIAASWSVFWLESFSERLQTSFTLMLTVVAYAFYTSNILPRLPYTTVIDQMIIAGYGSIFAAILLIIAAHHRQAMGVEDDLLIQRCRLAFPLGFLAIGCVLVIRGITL
Source text: as §1, §2

ELIC V260A = target: T10, ELIC V260A (Dickeya chrysanthemi, UniProt P0C7B7, V260A); experiment: TEVC cysteamine-induced current, ELIC V260A; format: cell-based; details: Xenopus laevis oocytes; ±SD; n=8
T10 construct: expressed in transfected cells; host or cells: Xenopus laevis oocytes injected with cRNA
T10 sequence (P0C7B7 whole entry V260A): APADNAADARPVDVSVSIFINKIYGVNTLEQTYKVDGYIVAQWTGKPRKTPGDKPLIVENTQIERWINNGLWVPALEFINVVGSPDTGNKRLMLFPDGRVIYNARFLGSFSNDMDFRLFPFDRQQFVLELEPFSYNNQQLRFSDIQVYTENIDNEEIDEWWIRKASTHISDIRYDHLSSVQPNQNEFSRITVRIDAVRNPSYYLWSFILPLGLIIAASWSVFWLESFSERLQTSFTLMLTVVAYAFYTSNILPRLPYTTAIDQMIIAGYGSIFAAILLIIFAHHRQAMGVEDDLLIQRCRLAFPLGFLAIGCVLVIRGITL
Source text: as §1, §2

ELIC L278A = target: T11, ELIC L278A (Dickeya chrysanthemi, UniProt P0C7B7, L278A); experiment: TEVC cysteamine-induced current, ELIC L278A; format: cell-based; details: Xenopus laevis oocytes; ±SD; n=8
T11 construct: expressed in transfected cells; host or cells: Xenopus laevis oocytes injected with cRNA (pTLN plasmid)
T11 sequence (P0C7B7 whole entry L278A): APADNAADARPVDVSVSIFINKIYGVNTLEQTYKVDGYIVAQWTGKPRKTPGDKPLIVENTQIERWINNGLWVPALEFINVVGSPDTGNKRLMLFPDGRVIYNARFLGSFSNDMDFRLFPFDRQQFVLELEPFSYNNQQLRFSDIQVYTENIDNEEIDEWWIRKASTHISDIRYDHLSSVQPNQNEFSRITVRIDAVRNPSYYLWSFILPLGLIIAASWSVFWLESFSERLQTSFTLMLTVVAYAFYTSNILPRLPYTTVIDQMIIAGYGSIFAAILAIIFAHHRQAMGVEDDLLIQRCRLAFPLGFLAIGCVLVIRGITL
Source text: as §1, §2

ELIC G311A = test system: ELIC G311A; design: method as in Henault et al.[9], [18], [29]; details: Xenopus laevis oocytes; ±SD; n=11; ref Henault et al.[9], [18], [29]; cited from earlier work

T1 sequence (P0C7B7 whole entry S271A/F303A): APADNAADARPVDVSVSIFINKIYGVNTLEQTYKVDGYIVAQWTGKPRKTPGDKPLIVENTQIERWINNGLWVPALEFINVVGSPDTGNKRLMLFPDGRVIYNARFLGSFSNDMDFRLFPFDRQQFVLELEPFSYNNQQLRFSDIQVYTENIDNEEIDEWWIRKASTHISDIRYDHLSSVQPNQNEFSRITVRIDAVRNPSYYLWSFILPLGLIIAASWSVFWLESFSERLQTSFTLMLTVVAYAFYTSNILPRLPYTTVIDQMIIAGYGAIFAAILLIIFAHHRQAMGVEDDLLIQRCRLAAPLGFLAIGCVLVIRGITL

NCCS [cysteamine]
EC50 (ELIC S271A + F303A): 620 ± 130 µM
−logEC50 (ELIC S271A + F303A): 3.21 ± 0.09
EC50 (ELIC F303A): 190 ± 70 µM
−logEC50 (ELIC F303A): 3.73 ± 0.17
EC50 (ELIC L295A): 500 ± 100 µM
−logEC50 (ELIC L295A): 3.30 ± 0.09
EC50 (ELIC I319A): 860 ± 160 µM
−logEC50 (ELIC I319A): 3.06 ± 0.08
EC50 (ELIC S271A + F307A): 770 ± 90 µM
−logEC50 (ELIC S271A + F307A): 3.11 ± 0.05
EC50 (ELIC S271A): 820 ± 50 µM
−logEC50 (ELIC S271A): 3.09 ± 0.03
EC50 (ELIC L209A): 290 ± 50 µM
−logEC50 (ELIC L209A): 3.54 ± 0.08
EC50 (ELIC V315A): 600 ± 80 µM
−logEC50 (ELIC V315A): 3.22 ± 0.06
EC50 (ELIC R300A): 400 ± 50 µM
−logEC50 (ELIC R300A): 3.40 ± 0.05
EC50 (ELIC W223A): 1230 ± 60 µM
−logEC50 (ELIC W223A): 2.91 ± 0.02
EC50 (ELIC L314A): 420 ± 50 µM
−logEC50 (ELIC L314A): 3.38 ± 0.05
EC50 (ELIC L213A): 320 ± 20 µM
−logEC50 (ELIC L213A): 3.49 ± 0.03
EC50 (ELIC W223A + R300A): 800 ± 110 µM
−logEC50 (ELIC W223A + R300A): 3.10 ± 0.05
EC50 (ELIC W219A + F303A): 550 ± 120 µM
−logEC50 (ELIC W219A + F303A): 3.26 ± 0.10
EC50 (ELIC F281A): 880 ± 50 µM
−logEC50 (ELIC F281A): 3.06 ± 0.02
EC50 (ELIC V260A): 460 ± 50 µM
−logEC50 (ELIC V260A): 3.34 ± 0.05
EC50 (ELIC L278A): 1070 ± 100 µM
−logEC50 (ELIC L278A): 2.97 ± 0.04
EC50 (ELIC G311A): 510 ± 100 µM

Source: paper PMC5428567, “Pentameric ligand-gated ion channels exhibit distinct transmembrane domain archetypes for folding/expression and function” (Scientific Reports, 2017)
